According to patent US20060069132A1, “Azolecarboxamide herbicides” (priority 2004, published 2006):

What was measured:
[1] = test system: smallflower umbrella sedge; assay: Test C flooded paddy test; format: in vivo, Cyperus difformis
yellow nutsedge = assay: Test C pre-/postemergence herbicide test; format: in vivo, Cyperus esculentus; conditions: for Nutsedge, Yellow plant response rating: 500 g ai/ha
Method in brief: (§1)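 Preemergence: seeds planted and treated with compound in non-phytotoxic solvent with surfactant; postemergence: plants at 2 to 18 cm (1- to 4-leaf stage) sprayed likewise. Kept in greenhouse 12 to 14 days, then visually rated against controls, 0 (no effect) to 100 (complete control).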

barnyardgrass = assay: Test C flooded paddy test; format: in vivo, Echinochloa crus-galli
Method in brief: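 Scoring by eye, 12–14 days post-treatment, greenhouse-held plants vs. controls; 0 no effect, 100 complete control. Sprayed at 1–4 leaves (2–18 cm); paddy barnyardgrass at 2 leaves, flooded.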

lambsquarters = assay: Test C pre-/postemergence herbicide test; format: in vivo, Chenopodium album; conditions: for Lambsquarters plant response rating: 500 g ai/ha
Method in brief: as §1

giant foxtail = assay: Test A pre-/postemergence herbicide test; format: in vivo, Setaria faberi; conditions: for Plant response rating, Foxtail, Giant: Postemergence; for Foxtail, Giant plant response rating: Preemergence
Method in brief: (§2)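 Sandy loam soil given preemergence directed spray; plants at 2 to 10 cm, one- to two-leaf stage, sprayed to runoff postemergence, compounds in non-phytotoxic solvent with surfactant. Injury rated visually versus untreated controls after about ten greenhouse days, 0 (no effect) to 100 (complete control); dash means not tested.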

corn = assay: Test C pre-/postemergence herbicide test; format: in vivo, Zea mays; conditions: for Corn plant response rating: 500 g ai/ha
Method in brief: as §1

soybean = assay: Test C pre-/postemergence herbicide test; format: in vivo, Glycine max; conditions: for Soybean plant response rating: 500 g ai/ha
Method in brief: as §1

pigweed = assay: Test C pre-/postemergence herbicide test; format: in vivo, Amaranthus retroflexus; conditions: for Pigweed plant response rating: 500 g ai/ha
Method in brief: as §1

morningglory = assay: Test C pre-/postemergence herbicide test; format: in vivo, Ipomoea coccinea; parameters: key to Plant response rating, Morningglory: 0 = no effect, 100 = complete control; conditions: for Morningglory plant response rating: 500 g ai/ha
Method in brief: as §1

kochia = assay: Test C pre-/postemergence herbicide test; format: in vivo, Kochia scoparia; conditions: for Kochia plant response rating: 500 g ai/ha
Method in brief: as §1

woolly cupgrass = assay: Test C pre-/postemergence herbicide test; format: in vivo, Eriochloa villosa; conditions: for Cupgrass, Woolly plant response rating: 500 g ai/ha
Method in brief: as §1

velvetleaf = assay: Test A pre-/postemergence herbicide test; format: in vivo, Abutilon theophrasti; conditions: for Velvetleaf plant response rating: Preemergence
Method in brief: as §2

Surinam grass = assay: Test C pre-/postemergence herbicide test; format: in vivo, Urochloa decumbens; conditions: for Plant response rating, Surinam Grass: visual, 12 to 14 days; for Surinam Grass plant response rating: 500 g ai/ha
Method in brief: as §1

goosegrass = assay: Test C pre-/postemergence herbicide test; format: in vivo, Eleusine indica; conditions: for Goosegrass plant response rating: 500 g ai/ha
Method in brief: as §1

[2] = 62 g ai/ha, scale 0 to 100 (0 no effect, 100 complete control)
[3] = 125 g ai/ha, scale of 0 to 100, 0 is no effect, 100 is complete control
[4] = 250 g ai/ha, scale of 0 to 100, 0 is no effect, 100 is complete control
[5] = 500 g ai/ha, visual rating after 12 to 14 days, scale 0 to 100 (0 no effect, 100 complete control)
[6] = 125 g ai/ha, scale 0 (no effect) to 100 (complete control), visual, 12 to 14 days, preemergence
[7] = 250 g ai/ha, scale 0 to 100 (0 no effect, 100 complete control), visual, 12 to 14 days, preemergence
[8] = Postemergence, 250 g ai/ha, scale 0 to 100, 0 no effect, 100 complete control
[9] = Preemergence, scale 0 to 100, 0 no effect, 100 complete control
[10] = postemergence, 62 g ai/ha, scale 0 to 100
[11] = 2000 g ai/ha, 0 to 100 scale, 0 no effect, 100 complete control
[12] = 500 g ai/ha, visual rating, 0 to 100 scale (0 no effect, 100 complete control)
[13] = Postemergence, 125 g ai/ha, scale 0 to 100, 0 no effect, 100 complete control

## CCNC(=O)c1cc(NC(=O)c2cc(C(C)(C)C)nn2CC)ccc1F [Compound 58]
[1]; [2]
  Sedge, Umbrella plant response rating: 0
[1]; [3]
  Sedge, Umbrella plant response rating: 20
[1]; [4]
  Sedge, Umbrella plant response rating: 50
[1]; [5]
  Plant response rating, Sedge, Umbrella: 65
Yellow nutsedge; 62 g ai/ha, preemergence
  Plant response rating (0 = no effect, 100 = complete control), Nutsedge, Yellow: 10
Yellow nutsedge; [6]
  Plant response rating, Nutsedge, Yellow: 20
Yellow nutsedge; [7]
  Plant response rating, Nutsedge, Yellow: 50
Yellow nutsedge; Postemergence, scale 0 to 100
  Nutsedge, Yellow plant response rating: 5
Yellow nutsedge; [8]
  Plant response rating, Nutsedge, Yellow: 5
Yellow nutsedge; [9]
  Nutsedge, Yellow plant response rating: 50
Yellow nutsedge; [10]
  Plant response rating, Nutsedge, Yellow: 0
barnyardgrass; [2]
  Barnyardgrass plant response rating: 0
barnyardgrass; [3]
  Barnyardgrass plant response rating: 10
barnyardgrass; [4]
  Barnyardgrass plant response rating: 35
barnyardgrass; [5]
  Plant response rating, Barnyardgrass: 85
lambsquarters; 62 g ai/ha, preemergence
  Plant response rating (0 = no effect, 100 = complete control), Lambsquarters: 100
lambsquarters; [6]
  Plant response rating, Lambsquarters: 100
lambsquarters; [7]
  Plant response rating, Lambsquarters: 100
lambsquarters; Postemergence, scale 0 to 100
  Lambsquarters plant response rating: 90
lambsquarters; [8]
  Plant response rating, Lambsquarters: 90
lambsquarters; [9]
  Lambsquarters plant response rating: 100
lambsquarters; [10]
  Plant response rating, Lambsquarters: 60
Giant foxtail; 500 g ai/ha, 0 to 100 scale, 0 no effect, 100 complete control
  Plant response rating, Foxtail, Giant: 45
Giant foxtail; [11]
  Plant response rating, Foxtail, Giant: 60
  Foxtail, Giant plant response rating: 95
Giant foxtail; [12]
  Foxtail, Giant plant response rating: 85
corn; 62 g ai/ha, preemergence
  Plant response rating (0 = no effect, 100 = complete control), Corn: 0
corn; [6]
  Plant response rating, Corn: 0
corn; [7]
  Plant response rating, Corn: 0
corn; Postemergence, scale 0 to 100
  Corn plant response rating: 15
corn; [13]
  Plant response rating, Corn: 5
corn; [8]
  Plant response rating, Corn: 5
corn; [9]
  Corn plant response rating: 0
corn; [10]
  Plant response rating, Corn: 0
soybean; 62 g ai/ha, preemergence
  Plant response rating (0 = no effect, 100 = complete control), Soybean: 0
soybean; [6]
  Plant response rating, Soybean: 5
soybean; [7]
  Plant response rating, Soybean: 25
soybean; Postemergence, scale 0 to 100
  Soybean plant response rating: 90
soybean; [8]
  Plant response rating, Soybean: 80
soybean; [9]
  Soybean plant response rating: 40
soybean; [10]
  Plant response rating, Soybean: 15
pigweed; 62 g ai/ha, preemergence
  Plant response rating (0 = no effect, 100 = complete control), Pigweed: 100
pigweed; [6]
  Plant response rating, Pigweed: 100
pigweed; [7]
  Plant response rating, Pigweed: 100
pigweed; Postemergence, scale 0 to 100
  Pigweed plant response rating: 85
pigweed; [8]
  Plant response rating, Pigweed: 70
pigweed; [9]
  Pigweed plant response rating: 100
pigweed; [10]
  Plant response rating, Pigweed: 60
morningglory; 62 g ai/ha, preemergence
  Plant response rating (0 = no effect, 100 = complete control), Morningglory: 10
morningglory; [6]
  Plant response rating, Morningglory: 20
morningglory; [7]
  Plant response rating, Morningglory: 50
morningglory; Postemergence, scale 0 to 100
  Morningglory plant response rating: 20
morningglory; [8]
  Plant response rating, Morningglory: 10
morningglory; [9]
  Morningglory plant response rating: 80
morningglory; [10]
  Plant response rating, Morningglory: 10
kochia; 62 g ai/ha, preemergence
  Plant response rating (0 = no effect, 100 = complete control), Kochia: 95
kochia; [6]
  Plant response rating, Kochia: 95
kochia; [7]
  Plant response rating, Kochia: 95
kochia; Postemergence, scale 0 to 100
  Kochia plant response rating: 85
kochia; [13]
  Plant response rating, Kochia: 80
kochia; [8]
  Plant response rating, Kochia: 80
kochia; [9]
  Kochia plant response rating: 100
kochia; [10]
  Plant response rating, Kochia: 75
Woolly cupgrass; 62 g ai/ha, preemergence
  Plant response rating (0 = no effect, 100 = complete control), Cupgrass, Woolly: 0
Woolly cupgrass; [6]
  Plant response rating, Cupgrass, Woolly: 40
Woolly cupgrass; [7]
  Plant response rating, Cupgrass, Woolly: 60
Woolly cupgrass; Postemergence, scale 0 to 100
  Cupgrass, Woolly plant response rating: 20
Woolly cupgrass; [13]
  Plant response rating, Cupgrass, Woolly: 5
Woolly cupgrass; [8]
  Plant response rating, Cupgrass, Woolly: 20
Woolly cupgrass; [9]
  Cupgrass, Woolly plant response rating: 80
Woolly cupgrass; [10]
  Plant response rating, Cupgrass, Woolly: 5
velvetleaf; Postemergence, 2000 g ai/ha, 0 to 100 scale, 0 no effect, 100 complete control
  Plant response rating, Velvetleaf: 40
velvetleaf; [12]
  Velvetleaf plant response rating: 70
velvetleaf; [11]
  Velvetleaf plant response rating: 65
Surinam grass; 62 g ai/ha, preemergence
  Plant response rating (0 = no effect, 100 = complete control), Surinam Grass: 10
Surinam grass; 125 g ai/ha, scale 0 (no effect) to 100 (complete control), preemergence
  Plant response rating, Surinam Grass: 55
Surinam grass; 250 g ai/ha, scale 0 to 100 (0 no effect, 100 complete control), preemergence
  Plant response rating, Surinam Grass: 80
Surinam grass; Postemergence, scale 0 to 100
  Surinam Grass plant response rating: 25
Surinam grass; [9]
  Surinam Grass plant response rating: 100
goosegrass; 62 g ai/ha, preemergence
  Plant response rating (0 = no effect, 100 = complete control), Goosegrass: 90
goosegrass; [6]
  Plant response rating, Goosegrass: 95
goosegrass; [7]
  Plant response rating, Goosegrass: 95
goosegrass; Postemergence, scale 0 to 100
  Goosegrass plant response rating: 30
goosegrass; [13]
  Plant response rating, Goosegrass: 5
goosegrass; [8]
  Plant response rating, Goosegrass: 10
goosegrass; [9]
  Goosegrass plant response rating: 95
goosegrass; [10]
  Plant response rating, Goosegrass: 0
